Results reported in patent publication US20190105367A1, “ANTIMICROBIAL 4-OXOQUINOLIZINES” (Emergent Product Development Gaithersburg Inc., priority 2011, published 2019).
In brackets after ≈: the same amount, converted by molar mass. Where two headings read alike, the source gives them in different places.

How the values were obtained:
A. baumannii A390 [1] = experiment: MIC without and with sub-inhibitory polymyxin B (Example 4); assay type: cell-based, Acinetobacter baumannii; details: +0.06 μg/ml PB, 2nd experiment
A. baumannii NCTC 13301 [2] = experiment: as above; assay type: cell-based, Acinetobacter baumannii; details: +[…] PB, 2nd experiment
[3] = system: Acinetobacter sp. (H064200250); experiment: as above; assay type: cell-based; details: for MIC: Acinetobacter
[4] = system: strains of A. baumannii and one strain of Acinetobacter sp.; experiment: MIC with sub-inhibitory concentrations (0.25x MIC) of polymyxin B, panel of Acinetobacter strains (Example 4); assay type: cell-based; details: 2nd experiment; 0.06 μg/ml polymyxin B; all strains except the ATCC strain
A. baumannii J2 = experiment: MIC without and with sub-inhibitory polymyxin B (Example 4); assay type: cell-based, Acinetobacter baumannii
A. baumannii A473 [5] = experiment: as above; assay type: cell-based, Acinetobacter baumannii; details: +0.06 μg/ml PB, 2nd experiment
A. baumannii A329 [6] = experiment: as above; assay type: cell-based, Acinetobacter baumannii; details: +0.06 μg/ml PB, 2nd experiment
A. baumannii A472 [7] = experiment: as above; assay type: cell-based, Acinetobacter baumannii; details: for MIC: Acinetobacter baumannii
A. baumannii A387 [8] = experiment: Preliminary MBC without and with sub-inhibitory polymyxin B (Example 4); assay type: cell-based, Acinetobacter baumannii; details: Acinetobacter baumannii
A. baumannii A401 [9] = experiment: MIC without and with sub-inhibitory polymyxin B (Example 4); assay type: cell-based, Acinetobacter baumannii; details: for MIC: Acinetobacter baumannii
A. baumannii A14 [10] = experiment: Preliminary MBC without and with sub-inhibitory polymyxin B (Example 4); assay type: cell-based, Acinetobacter baumannii; details: 2nd experiment
Procedure, shortened: (§1)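 Incubation 18-20 h, 37° C. MBC = lowest conc. with ~90% fewer colonies than positive control (single/no colonies).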

A. baumannii A390 [11] = experiment: as above; assay type: cell-based, Acinetobacter baumannii; details: Acinetobacter baumannii, A390, A. baumannii A390, +0.06 μg/ml PB, 2nd experiment, read-out: MBC
Procedure, shortened: as §1

A. baumannii A473 [12] = experiment: as above; assay type: cell-based, Acinetobacter baumannii; details: Acinetobacter baumannii, A473, A. baumannii A473, +0.06 μg/ml PB, 2nd experiment, read-out: MBC
Procedure, shortened: as §1

A. baumannii NCTC 13301 [13] = experiment: as above; assay type: cell-based, Acinetobacter baumannii; details: Acinetobacter baumannii
Procedure, shortened: as §1

A. baumannii A14 [14] = experiment: MIC without and with sub-inhibitory polymyxin B (Example 4); assay type: cell-based, Acinetobacter baumannii; details: 1st experiment
A. baumannii A14 [15] = experiment: Preliminary MBC without and with sub-inhibitory polymyxin B (Example 4); assay type: cell-based, Acinetobacter baumannii; details: A. baumannii A14; +0.06 μg/ml polymyxin B; preliminary MBC; 1st experiment
A. baumannii A329 [16] = experiment: as above; assay type: cell-based, Acinetobacter baumannii; details: Acinetobacter baumannii, A329, A. baumannii A329, +0.06 μg/ml PB, 2nd experiment, read-out: MBC
A. baumannii A489 = experiment: as above; assay type: cell-based, Acinetobacter baumannii; details: Acinetobacter baumannii, preliminary MBC
A. baumannii ATCC 19606 = experiment: MIC without and with sub-inhibitory polymyxin B (Example 4); assay type: cell-based, Acinetobacter baumannii; details: for MIC without PB/MIC + PB: A. baumannii ATCC 19606; for MIC: Acinetobacter baumannii
A. baumannii A401 [17] = experiment: Preliminary MBC without and with sub-inhibitory polymyxin B (Example 4); assay type: cell-based, Acinetobacter baumannii; details: Acinetobacter baumannii
A. baumannii A472 [18] = experiment: as above; assay type: cell-based, Acinetobacter baumannii; details: Acinetobacter baumannii, preliminary MBC
A. baumannii A14 [19] = experiment: MIC without and with sub-inhibitory polymyxin B (Example 4); assay type: cell-based, Acinetobacter baumannii; details: 2nd experiment
A. baumannii NCTC 13301 [20] = experiment: as above; assay type: cell-based, Acinetobacter baumannii
A. baumannii A387 [21] = experiment: as above; assay type: cell-based, Acinetobacter baumannii; details: for MIC without PB/MIC + PB: A. baumannii A387; for MIC: Acinetobacter baumannii
[22] = A. baumannii A14, +0.06 μg/ml PB
[23] = ratio, PB 0.06 μg/ml, 1st experiment

Cc1c(-c2ccc(N)cc2)ccn2c(=O)c(C(=O)O)cc(C3CC3)c12 [Compound 8, 8-(4-amino-phenyl)-1-cyclopropyl-9-methyl-4-oxo-quinolizine-3-carboxylic acid]
MIC without PB/MIC + PB (A. baumannii A390 [1]; A. baumannii A390): 32
MIC (A. baumannii A390 [1]; Acinetobacter baumannii, A390, A. baumannii A390, read-out: MIC): 0.5 µg/mL (≈ 1.5 µM)
MIC without PB/MIC + PB (A. baumannii NCTC 13301 [2]; A. baumannii NCTC 13301): 32
MIC (A. baumannii NCTC 13301 [2]; Acinetobacter baumannii, NCTC13301, A. baumannii NCTC 13301, read-out: MIC): 0.5 µg/mL (≈ 1.5 µM)
MIC without PB/MIC + PB ([3]; Acinetobacter spp. H064200250 (OXA51), +[…] PB, 2nd experiment): 32
MIC without PB/MIC + PB ([3]; Acinetobacter spp. H064200250, ratio, PB […], 1st experiment): 32
MIC ([3]; Acinetobacter spp. H064200250 (OXA51), +[…] PB, 2nd experiment, read-out: MIC): 0.125 µg/mL (≈ 0.374 µM)
MIC ([3]; read-out: MIC +[…] PB, Acinetobacter spp. H064200250, +[…] polymyxin B, 1st experiment): 0.06 µg/mL (≈ 0.179 µM)
MIC range with PB (0.25x MIC) Oct. 14, 2008 n = 11 [4]: ≤0.03 to 8 µg/mL
MIC without PB/MIC + PB (A. baumannii J2; A. baumannii J2, +[…] PB, 2nd experiment): ≥128
MIC +[…] PB (A. baumannii J2; A. baumannii J2, +[…] polymyxin B, 1st experiment): 0.125 µg/mL (≈ 0.374 µM)
MIC without PB/MIC + PB (A. baumannii J2; A. baumannii J2, ratio, PB […], 1st experiment): 64
MIC (A. baumannii J2; Acinetobacter baumannii, J2, A. baumannii J2, +[…] PB, 2nd experiment, read-out: MIC): ≤ 0.03 µg/mL
MIC without PB/MIC + PB (A. baumannii A473 [5]; A. baumannii A473): 8
MIC (A. baumannii A473 [5]; Acinetobacter baumannii, A473, A. baumannii A473, read-out: MIC): 0.5 µg/mL (≈ 1.5 µM)
MIC without PB/MIC + PB (A. baumannii A329 [6]; A. baumannii A329): 4
MIC (A. baumannii A329 [6]; Acinetobacter baumannii, A329, A. baumannii A329, read-out: MIC): 2 µg/mL (≈ 5.98 µM)
MIC without PB/MIC + PB (A. baumannii A472 [7]; A. baumannii A472, ratio, PB […], 1st experiment): ≥128
MIC (A. baumannii A472 [7]; A472, A. baumannii A472, +[…] PB, 2nd experiment, read-out: MIC): 0.06 µg/mL (≈ 0.179 µM)
MIC (A. baumannii A472 [7]; A472, read-out: MIC +[…] PB, A. baumannii A472, +[…] polymyxin B, 1st experiment): ≤ 0.03 µg/mL
MBC (A. baumannii A387 [8]; A387, A. baumannii A387, +0.06 μg/ml PB, 2nd experiment, read-out: MBC): 0.25 µg/mL (≈ 0.748 µM)
MBC (A. baumannii A387 [8]; A387, read-out: MBC +0.06 μg/ml PB, A. baumannii A387, +0.06 μg/ml polymyxin B, 1st experiment): ≤ 0.03 µg/mL
MIC without PB/MIC + PB (A. baumannii A401 [9]; A baumannii A 401, ratio, PB 0.06 μg/ml, 1st experiment): ≥1024
MIC (A. baumannii A401 [9]; A401, A baumannii A 401, +0.06 μg/ml PB, 2nd experiment, read-out: MIC): 0.25 µg/mL (≈ 0.748 µM)
MIC (A. baumannii A401 [9]; A401, read-out: MIC +0.06 μg/ml PB, A baumannii A 401, +0.06 μg/ml polymyxin B, 1st experiment): ≤ 0.03 µg/mL
MBC (A. baumannii A14 [10]; [22]): 0.5 µg/mL (≈ 1.5 µM)
MBC (A. baumannii A14 [10]; Acinetobacter baumannii, A14, A. baumannii A14, without PB, read-out: MBC): 16 µg/mL (≈ 47.9 µM)
MBC (A. baumannii A390 [11]): 0.5 µg/mL (≈ 1.5 µM)
MBC (A. baumannii A473 [12]): 0.5 µg/mL (≈ 1.5 µM)
MBC (A. baumannii NCTC 13301 [13]; NCTC13301, A. baumannii NCTC 13301, +[…] PB, preliminary MBC, 2nd experiment, read-out: MBC): 0.5 µg/mL (≈ 1.5 µM)
MBC (A. baumannii NCTC 13301 [13]; NCTC13301, read-out: MBC +[…] PB): 1 µg/mL (≈ 2.99 µM)
MIC +0.06 μg/ml PB (A. baumannii A14 [14]; +0.06 μg/ml polymyxin B): 1 µg/mL
MIC without PB/MIC + PB (A. baumannii A14 [14]; ratio, PB 0.06 μg/ml): 32
MBC +0.06 μg/ml PB (A. baumannii A14 [15]): 1 µg/mL
MBC (A. baumannii A329 [16]): 2 µg/mL (≈ 5.98 µM)
MBC (A. baumannii A489; A489, A. baumannii A489, +[…] PB, 2nd experiment, read-out: MBC): ≤ 0.03 µg/mL
MBC (A. baumannii A489; A489, read-out: MBC +[…] PB, A. baumannii A489, +[…] polymyxin B, 1st experiment): ≤ 0.03 µg/mL
MIC without PB/MIC + PB (A. baumannii ATCC 19606; +0.06 μg/ml PB, 2nd experiment): ≥8
MIC without PB/MIC + PB (A. baumannii ATCC 19606; [23]): ≥32
MIC (A. baumannii ATCC 19606; ATCC19606, A. baumannii ATCC 19606, +0.06 μg/ml PB, 2nd experiment, read-out: MIC): ≤ 0.03 µg/mL
MIC (A. baumannii ATCC 19606; ATCC19606, read-out: MIC +0.06 μg/ml PB, A. baumannii ATCC 19606, +0.06 μg/ml polymyxin B, 1st experiment): ≤ 0.03 µg/mL
MBC (A. baumannii A401 [17]; A401, A baumannii A 401, +0.06 μg/ml PB, 2nd experiment, read-out: MBC): 0.25 µg/mL (≈ 0.748 µM)
MBC (A. baumannii A401 [17]; A401, read-out: MBC +0.06 μg/ml PB, A baumannii A 401, +0.06 μg/ml polymyxin B, 1st experiment): ≤ 0.03 µg/mL
MBC (A. baumannii A472 [18]; A472, A. baumannii A472, +[…] PB, 2nd experiment, read-out: MBC): 0.06 µg/mL (≈ 0.179 µM)
MBC (A. baumannii A472 [18]; A472, read-out: MBC +[…] PB, A. baumannii A472, +[…] polymyxin B, 1st experiment): ≤ 0.03 µg/mL
MIC (A. baumannii A14 [19]; [22]): 0.5 µg/mL (≈ 1.5 µM)
MIC without PB/MIC + PB (A. baumannii A14 [19]; [22]): 16
MIC (A. baumannii A14 [19]; Acinetobacter baumannii, A14, A. baumannii A14, without PB, read-out: MIC): 8 µg/mL (≈ 23.9 µM)
MIC without PB/MIC + PB (A. baumannii NCTC 13301 [20]; A. baumannii NCTC 13301, ratio, PB […], 1st experiment): 64
MIC (A. baumannii NCTC 13301 [20]; Acinetobacter baumannii, NCTC13301, read-out: MIC +[…] PB): 0.5 µg/mL (≈ 1.5 µM)
MIC without PB/MIC + PB (A. baumannii A387 [21]; +0.06 μg/ml PB, 2nd experiment): 2
MIC without PB/MIC + PB (A. baumannii A387 [21]; [23]): ≥64
MIC (A. baumannii A387 [21]; A387, A. baumannii A387, +0.06 μg/ml PB, 2nd experiment, read-out: MIC): 0.5 µg/mL (≈ 1.5 µM)
MIC (A. baumannii A387 [21]; A387, read-out: MIC +0.06 μg/ml PB, A. baumannii A387, +0.06 μg/ml polymyxin B, 1st experiment): ≤ 0.03 µg/mL
